Test results published in the NIST ThermoML archive (doi:10.1016/j.fluid.2016.08.035).

Columns and labels:
[1] = molar heat capacity at constant pressure; xn = mol fraction of the nth substance listed; conditions: 101 kPa, Liquid, DSC
[2] = xn = mol fraction of the nth substance listed; conditions: 101 kPa, Liquid; for viscosity: Falling or rolling sphere viscometry; for speed of sound: Sing-around technique in a fixed-path interferometer; for mass density: Vibrating tube method

CC12CCC(CC1)C(C)(C)O2 [1,3,3-trimethyl-2-oxabicyclo[2.2.2]octane] + CCCCCC
Conditions | mass density, [2] [kg/m3] | molar heat capacity at constant pressure, [1] [J/K/mol] | speed of sound, [2] [m/s] | viscosity, [2] [mPa·s]
278.15 K, x1 = 0.1043 | 708.22 | 194.63 | 1188.8 | 0.47
278.15 K, x1 = 0.2069 | 740.59 | 200.97 | 1208.4 | 0.57
278.15 K, x1 = 0.2965 | 767.3 | 206.77 | 1225.8 | 0.68
278.15 K, x1 = 0.4005 | 796.7 | 213.53 | 1246.1 | 0.83
278.15 K, x1 = 0.4991 | 823.02 | 220.18 | 1265.3 | 1.03
278.15 K, x1 = 0.5999 | 848.56 | 227.2 | 1284.8 | 1.28
278.15 K, x1 = 0.6995 | 872.46 | 234.25 | 1304 | 1.66
278.15 K, x1 = 0.8005 | 895.28 | 241.41 | 1322.8 | 2.19
278.15 K, x1 = 0.8985 | 916.39 | 248.64 | 1341 | 2.93
278.15 K, x1 = 1 | 937.25 | 256.14 | 1359.6 | 4.21
298.15 K, x1 = 0.1043 | 690.43 | 201.78 | 1099.9 | 0.39
298.15 K, x1 = 0.2069 | 722.9 | 208.67 | 1121.2 | 0.46
298.15 K, x1 = 0.2965 | 749.7 | 214.95 | 1139.8 | 0.53
298.15 K, x1 = 0.4005 | 779.19 | 222.29 | 1161.4 | 0.64
298.15 K, x1 = 0.4991 | 805.59 | 229.41 | 1181.5 | 0.77
298.15 K, x1 = 0.5999 | 831.19 | 236.9 | 1201.8 | 0.93
298.15 K, x1 = 0.6995 | 855.13 | 244.43 | 1221.6 | 1.16
298.15 K, x1 = 0.8005 | 878 | 252.03 | 1241.3 | 1.48
298.15 K, x1 = 0.8985 | 899.14 | 259.73 | 1260 | 1.9
298.15 K, x1 = 1 | 920.04 | 267.69 | 1278.4 | 2.6
318.15 K, x1 = 0.1043 | 672.12 | 209.13 | 1012.6 | 0.34
318.15 K, x1 = 0.2069 | 704.78 | 216.45 | 1035.9 | 0.38
318.15 K, x1 = 0.2965 | 731.74 | 223.08 | 1055.9 | 0.43
318.15 K, x1 = 0.4005 | 761.37 | 230.81 | 1078.8 | 0.51
318.15 K, x1 = 0.4991 | 787.91 | 238.36 | 1100.2 | 0.6
318.15 K, x1 = 0.5999 | 813.62 | 246.29 | 1121.5 | 0.71
318.15 K, x1 = 0.6995 | 837.67 | 254.22 | 1142.2 | 0.86
318.15 K, x1 = 0.8005 | 860.63 | 262.24 | 1162.8 | 1.06
318.15 K, x1 = 0.8985 | 881.86 | 270.35 | 1182.4 | 1.32
318.15 K, x1 = 1 | 902.84 | 278.65 | 1201 | 1.73
338.15 K, x1 = 0.1043 | 653.14 | 216.81 | 926.7 | 0.3
338.15 K, x1 = 0.2069 | 685.99 | 224.63 | 952.68 | 0.34
338.15 K, x1 = 0.2965 | 713.31 | 231.59 | 974.13 | 0.38
338.15 K, x1 = 0.4005 | 743.17 | 239.8 | 998.9 | 0.43
338.15 K, x1 = 0.4991 | 769.91 | 247.71 | 1021.5 | 0.49
338.15 K, x1 = 0.5999 | 795.8 | 256.09 | 1044.1 | 0.57
338.15 K, x1 = 0.6995 | 819.99 | 264.46 | 1065.7 | 0.68
338.15 K, x1 = 0.8005 | 843.1 | 272.99 | 1087 | 0.82
338.15 K, x1 = 0.8985 | 864.46 | 281.61 | 1107.2 | 0.99
338.15 K, x1 = 1 | 885.57 | 290.33 | 1126.7 | 1.27
